Data as given in patent publication US20250325534A1, “MICROBIOCIDAL TETRAHYDROISOQUINOLINE DERIVATIVES” (SYNGENTA CROP PROTECTION AG, priority 2021, published 2025).

Experiments:
Monographella nivalis = Monographella nivalis (Microdochium nivale) / liquid culture (foot rot cereals); type: cell-based; conditions: 96 h, photometrically 4-5 days after application, read-out: control of Monographella nivalis
Outline: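 Microdochium nivale conidia in potato dextrose broth were added to test compound in DMSO and incubated at 24° C. Growth inhibition was measured photometrically 4-5 days after application.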

[1] = system: Mycosphaerella graminicola; assay: Mycosphaerella graminicola (Septoria tritici) / liquid culture (Septoria blotch); type: cell-based; conditions: Zymoseptoria tritici, 96 h, photometrically 4-5 days after application, read-out: control of Mycosphaerella graminicola
Outline: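 Conidia from cryogenic storage mixed into potato dextrose broth, added to test compound in DMSO. Plates incubated at 24° C; growth inhibition read photometrically 4-5 days after application.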

fungi = assay: Fungicidal activity of separated stereoisomers compared (test not specified); conditions: comparison of SFC-separated isomers; test and fungus not given
Alternaria solani = Alternaria solani / tomato / leaf disc (early blight); type: in vivo; conditions: foliar, inoculated 2 days after application, vs untreated control
Botryotinia fuckeliana = Botryotinia fuckeliana (Botrytis cinerea) / liquid culture (gray mould); type: cell-based; conditions: 72 h, growth inhibition photometrically 3-4 days after application, read-out: control of Botryotinia fuckeliana
Outline: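 Botrytis cinerea conidia in Vogels nutrient broth added to test compound delivered in DMSO. Incubated at 24 °C; growth inhibition measured photometrically 3–4 days after application.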

Glomerella lagenarium = Glomerella lagenarium (Colletotrichum lagenarium) / liquid culture (anthracnose); type: cell-based; conditions: Colletotrichum orbiculare, 72 h, photometrically 3-4 days after application, read-out: control of Glomerella lagenarium
Outline: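 Conidia in potato dextrose broth added to test compound delivered as DMSO solution in microtiter plates; incubation at 24° C. Growth inhibition read photometrically 3-4 days after application.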

Phaeosphaeria nodorum = Phaeosphaeria nodorum (Septoria nodorum) / wheat / leaf disc preventative (glume blotch); type: in vivo; conditions: Parastagonospora nodorum, foliar, inoculated 2 days after application
Outline: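 Wheat leaf discs (cv. Kanzler) on agar were sprayed with formulated compound diluted in water, then inoculated with spores 2 days later. Incubation was at 20 °C and 75% relative humidity under 12 h light/12 h dark. Percent disease control versus untreated was scored 5–7 days after application.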

Mycosphaerella arachidis = Mycosphaerella arachidis (Cercospora arachidicola) / liquid culture (early leaf spot); type: cell-based; conditions: 96 h, photometrically 4-5 days after application, read-out: control of Mycosphaerella arachidis
Outline: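 Cryostored M. arachidis conidia in potato dextrose broth were added to compound applied as DMSO solution. Incubated at 24 °C; growth inhibition measured photometrically 4-5 days after application.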

Pyrenophora teres = Pyrenophora teres / barley / leaf disc preventative (net blotch); type: in vivo; conditions: foliar, inoculated 2 days after application
Outline: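 Barley cv. Hasso leaf segments on agar sprayed with formulated compound in water, then inoculated with spore suspension 2 days later. Incubated at 20° C., 65% RH, 12 h light/12 h dark; disease control versus untreated assessed 5-7 days after application.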

Sclerotinia sclerotiorum = Sclerotinia sclerotiorum / liquid culture (cottony rot); type: cell-based; conditions: 72 h, photometrically 3-4 days after application, read-out: control of Sclerotinia sclerotiorum
Procedure: Example B18: Sclerotinia sclerotiorum/Liquid Culture (Cottony Rot) Mycelia fragments of a newly grown liquid culture of the fungus are directly mixed into a nutrient broth (potato dextrose broth). After placing a DMSO solution of test compound into a microtiter plate (96-well format) the nutrient broth containing the fungal material is added. The test plates are incubated at 24° C. and the inhibition of growth is determined photometrically 3-4 days after application.

[2] = system: Blumeria graminis f. sp. tritici; assay: Blumeria graminis f. sp. tritici / wheat / leaf disc preventative (powdery mildew); type: in vivo; conditions: foliar, inoculated 1 day after application
Procedure: Example B7: Blumeria graminis f. Sp. Tritici (Erysiphe graminis f. Sp. Tritici)/Wheat/Leaf Disc Preventative (Powdery Mildew on Wheat) Wheat leaf segments cv. Kanzler are placed on agar in a multiwell plate (24-well format) and sprayed with the formulated test compound diluted in water. The leaf disks are inoculated by shaking powdery mildew infected plants above the test plates 1 day after application. The inoculated leaf disks are incubated at 20° C. and 60% relative humidity under a light regime of 24 h darkness followed by 12 h light/12 h darkness in a climate chamber and the activity of a compound is assessed as percent disease control compared to untreated when an appropriate level of disease damage appears on untreated check leaf segments (6-8 days after application).

Fusarium culmorum = assay: microbe, parasite or virus in culture; type: cell-based; conditions: 72 h, read-out: control of Fusarium culmorum

Row | Structure (SMILES) | inhibition of growth at 20 ppm (Monographella nivalis) [%] | inhibition of growth at 20 ppm [1] [%] | fungicidal activity relative to its stereoisomer (fungi) | pest or weed control at 200 ppm (Alternaria solani) [%] | inhibition of growth at 20 ppm (Botryotinia fuckeliana) [%] | inhibition of growth at 20 ppm (Glomerella lagenarium) [%] | pest or weed control at 200 ppm (Phaeosphaeria nodorum) [%] | inhibition of growth at 20 ppm (Mycosphaerella arachidis) [%] | pest or weed control at 200 ppm (Pyrenophora teres) [%] | inhibition of growth at 20 ppm (Sclerotinia sclerotiorum) [%] | pest or weed control at 200 ppm [2] [%] | inhibition of growth at 20 ppm (Fusarium culmorum) [%]
1 | C[C@@H]1c2ccccc2[C@@](C)(c2cnn(C)c2)CN1C(=O)c1cc(-c2ccc(F)cc2F)on1 (single isomer, unassigned) [Compound P-9] | ≥ 80 | ≥ 80 | more fungicidally active than the compound of peak 2 |  |  |  |  |  |  |  |  | 
2 | C[C@H]1c2ccccc2[C@@](C)(c2cnn(C)c2)CN1C(=O)c1cc(-c2ccc(F)cc2F)on1 (single isomer, unassigned) [Compound P-6] | ≥ 80 | ≥ 80 | more fungicidally active than the compound of peak 3 | ≥ 80 | ≥ 80 | ≥ 80 | ≥ 80 | ≥ 80 | ≥ 80 |  |  | 
3 | Cn1cc([C@@]2(C)CN(C(=O)c3cc(-c4ccc(F)cc4F)on3)Cc3ccccc32)cn1 (single isomer, unassigned) [Compound P-48] | ≥ 80 | ≥ 80 | more fungicidally active than the (R) isomer | ≥ 80 | ≥ 80 | ≥ 80 | ≥ 80 | ≥ 80 | ≥ 80 | ≥ 80 |  | 
4 | Cc1c(C2CN(C(=O)c3nnc(-c4ccc(F)cc4F)s3)Cc3ccccc32)cnn1C (stereo not drawn) [Compound P-65, [5-(2,4-difluorophenyl)-1,3,4-thiadiazol-2-yl]-[4-(1,5-dimethylpyrazol-4-yl)-3,4-dihydro-1H-isoquinolin-2-yl]methanone] | ≥ 80 | ≥ 80 |  | ≥ 80 | ≥ 80 | ≥ 80 | ≥ 80 | ≥ 80 | ≥ 80 | ≥ 80 | ≥ 80 | ≥ 80
